Reference: patent US6664426B1, “Ether and ester derivatives of the perborate icosahedron” (The Regents of the University of California, priority 2000, dated 2003)

Experiment: Qualitative solubility in water
Type: physicochemical
Conditions: qualitative statement

| Substance | solubility in water |
| --- | --- |
| Cs2[closo-B12H12]^2− | sparingly water-soluble |
| Cs[closo-1-CB11H12]^− | sparingly water-soluble |
| closo-1,12-(CH2OH)2-1,12-C2B10H10 | slightly water-soluble |

Now from value to substance:

| solubility in water | Substance |
| --- | --- |
| freely soluble in water | Cs2[closo-B12(OH)12] [dicesium salt] |
| not water-soluble | closo-1,12-C2B10H12 |
